The source of these data is US5385927A, “Hydroxy-3-[1-(1H-imidazol-4-yl)alkyl]-benzenecarboximidamides and their use in treating glaucoma” (priority 1993, dated 1995).

Data set [1] relates to presynaptic α2-adrenergic receptor (guinea-pig ileum). Briefly: Inhibition of the contraction of the isolated guinea-pig ileum induced by electrical stimulation (presynaptic α2-adrenergic agonist properties). To be noted: for IC50: concentration that reduces by 50% the intensity of the muscle contraction, electrical stimulation. The text has this:
Stimulation of the guinea-pig ileum.
Longitudinal muscle fragments attached to an isometric force indicator are immersed in Tyrode's solution and are stretched with a force of 1 g (G. M. DREW, Brit. J. Pharmacol. 64, (1978), 293-300; M. ANDREJAK et al., Naunyn-Schmiedeberg's Arch. Pharmacol. 314, (1980), 83-87).
Electrical stimulation of the parasympathetic nerves associated with the ileum fragments causes a contraction of the muscle. This contraction is reduced in the presence of a presynaptic α2 -agonist and the magnitude by which the contraction is reduced depends on the concentration of the agonist used. This effect is antagonized by the simultaneous presence of an α2 -antagonist such as α-yohimbine.
The compounds to be studied have been tested at increasing concentrations ranging from 10^-10 to 10^-3 mole/l. The concentration (IC50 in mole/l) that reduces by 50% the intensity of the muscle contraction is determined.
Table I gives the IC50 concentrations (in mole/l) obtained for the compounds of the invention (except for compound 6, for which compound the IC30 concentration is given).

Data set [2] relates to intraocular pressure of the treated eye. The data set can be described thus: Intraocular pressure variation in awake normotensive rabbits, treated eye. It is filed as in vivo, rabbit (New Zealand White). Here is the method: the 1st column indicates the compound tested,
the 2nd column indicates the concentration of the compound, in percent (in weight per volume),
the 3rd, 4th, 5th, 6th and 7th columns indicate the variation in intraocular pressure (ΔP) expressed in percent, with respect to an animal treated with a collyrium containing no compound to be tested, measured after 30 minutes, 1, 2, 3 or 6 hours respectively.

For the next data set, the system named is male NMRI mice. The data set can be described thus: Toxicity by means of Irwin's test, intraperitoneal. Type of data set: in vivo, mouse (NMRI). The settings on record: death of two out of three animals within 24 hours. Here is the method:
The toxicity of the compounds according to the present invention has been determined in male NMRI mice by means of Irwin's test (S. IRWIN, Psychopharmacologia, 13, (1968), 222-257). Progressive doses of the compound to be tested are administered intraperitoneally to groups of three mice until the lethal dose is reached (dose which causes the death of two out of three animals within 24 hours).
It can be seen from this Table that the compounds of the invention have a very low toxicity.

In data set [3] the test system is mucous membrane of the treated eye (conjunctivae). The data set can be described thus: Effect on the mucous membrane of the treated eye (hypohemia). It is filed as in vivo, rabbit (New Zealand White). The text has this:
Hypohemia manifests itself by insufficient blood irrigation of the conjunctiva, which can result in irreversible local ischemias.

For data set [4] the following is noted: background of the patent, cited from earlier work.
For data set [5], the system named is intraocular pressure of the contralateral eye. Here is the method:
All the doses tested are administered to three rabbits (weight 2-2.5 kg) of both sexes according to a "cross-over" experimental protocol in which each animal is also used in the control group. […] The intraocular pressure is measured tonometrically with a BIORAD pneumatonograph (DIGILAB MODULAR ONE) after local anesthesia using 2 drops of a 0.4% (in weight per volume) solution of oxybuprocaine hydrochloride.

A further data set deals with pupil diameter. Briefly: Effect on the pupil diameter of the treated eye and of the contralateral eye. To be noted: clonidine: ipsilateral eye at 0.1 and 0.5%; compounds of the invention: treated or contralateral eye at doses of Table II.
The mark [6] stands for this setting: ocular or topical use unless stated.

Like-named read-outs stand apart in the source and are kept apart here.

Protocol for heart rate: The compounds to be studied are administered as a solution in 30 microliters of sterile distilled water (collyrium) at concentrations ranging from 0 (reference) to 0.5% (in weight per volume).
Protocol for pupil diameter: The pupil diameters are measured visually at the point of maximal vertical diameter, using a millimetric metal standard.

Turning to `CC(c1c[nH]cn1)c1cccc(C(=N)N)c1O` (single isomer, unassigned; (+)) [D, (+)-2-hydroxy-3-[1-(1H-imidazol-4-yl)ethyl]-benzenecarboximidamide], in data set [1], the half-maximal inhibitory concentration (IC50) is 3.9 nM. Moreover, in data set [2] (0.01% w/v), the “ΔP [30 min], variation in intraocular pressure” value (from here on “ΔP [30 min], variation”) was -14.1%; the “ΔP [2 h], variation in intraocular pressure” value (“ΔP [2 h], variation” below) is given as -17.7%; the “ΔP [6 h], variation in intraocular pressure” value (“ΔP [6 h], variation” for short) is listed as -15.1%. The Lethal dose in the data set on male NMRI mice came out at 25 mg/kg.

In turn, `CC(c1c[nH]cn1)c1cccc(C(=N)N)c1O` (single isomer, unassigned; (-)) [E, (-)-2-hydroxy-3-[1-(1H-imidazol-4-yl)ethyl]-benzenecarboximidamide] returned an IC50 in data set [1] of 200 nM. Besides, in data set [2] (0.5% w/v), the “ΔP [30 min], variation” value was -11.6%; the “ΔP [1 h], variation in intraocular pressure” value is -12.6%; the “ΔP [6 h], variation” value is recorded as -6.6%. Also, the “Hypohemia of the treated eye” value in data set [3] (0.5%) was “do not induce hypohemia”. The compound further returned a Lethal dose in the data set on male NMRI mice of 248 mg/kg.

On to `N=C(N)c1cccc(Cc2c[nH]cn2)c1O` [A, 2-hydroxy-3-(1H-imidazol-4-ylmethyl)-benzenecarboximidamide], for which the half-inhibitory concentration (IC50) in data set [1] amounted to 62 nM. For the same compound, in data set [2] (0.05% w/v), the “ΔP [30 min], variation” value is -5.9%; the “ΔP [2 h], variation” value is given as -18.6%; the “ΔP [6 h], variation” value is -1.1%. Moreover, in data set [2] (0.1% w/v), the “ΔP [30 min], variation” value is given as -9.2%; the “ΔP [2 h], variation” value was -21.2%; the “ΔP [6 h], variation” value is listed as -16.1%. For the same compound, in data set [3] (0.1%), the “Hypohemia of the treated eye” value is given as “do not induce hypohemia”. Moreover, the Lethal dose in the data set on male NMRI mice was above 216 mg/kg.

Turning to `CNC(=N)c1cccc(Cc2c[nH]cn2)c1O` [B, 2-hydroxy-3-(1H-imidazol-4-ylmethyl)-N-methyl-benzenecarboximidamide], the IC50 in data set [1] was 2500 nM. In data set [2] (0.5% w/v), the “ΔP [30 min], variation” value was -5.5%; the “ΔP [1 h], variation in intraocular pressure” value is -10.8%; the “ΔP [2 h], variation” value is -13.3%; the “ΔP [3 h], variation in intraocular pressure” value is given as -12.8%. Moreover, the “ΔP [6 h], variation” value in data set [2] (0.5% w/v) is reported as -7.6%. The compound further yielded a Lethal dose with male NMRI mice of 230 mg/kg.

Regarding `N=C(NO)c1cccc(Cc2c[nH]cn2)c1O` [C, N,2-dihydroxy-3-(1H-imidazol-4-ylmethyl)-benzenecarboximidamide], in data set [1], the 50% inhibitory concentration (IC50) came to 140 nM. Also, in the data set with male NMRI mice, the Lethal dose stood at 232 mg/kg.

As to `CC(C)NC(=N)c1cccc(Cc2c[nH]cn2)c1O` [F, 2-hydroxy-3-(1H-imidazol-4-ylmethyl)-N-(1-methylethyl)-benzenecarboximidamide], in data set [1], the IC50 was 6400 nM. The Lethal dose in the data set on male NMRI mice is given as 155 mg/kg.

In the case of `N=C(NN)c1cccc(Cc2c[nH]cn2)c1O` [G, 2-hydroxy-3-(1H-imidazol-4-ylmethyl)-benzenecarboximidic acid hydrazide], the “IC30, inhibition of the contraction of the guinea-pig ileum” value in data set [1] (IC30 printed in the IC50 column) came to 2500 nM. This compound also showed a Lethal dose in the data set on male NMRI mice of 416 mg/kg.

As to `CC(=O)Nc1nnc(S(N)(=O)=O)s1` [acetazolamide], the “Side-effects (in words)” value in data set [4] (carbonic anhydrase inhibitors, systemic administration) is listed as “depression of the central nervous system, weight loss and, mainly, bone marrow hypofunction”.

For the compound `Clc1cccc(Cl)c1N=C1NCCN1` [clonidine], the half-inhibitory concentration (IC50) in data set [1] turned out to be 17 nM. In data set [2], the “Biphasic effect on intraocular pressure (in words)” value is “initially induces hypertension of the treated eye, which effect increases with the concentration of the product”. The results for the “ΔP [30 min], variation” value in data set [2] (0.01% w/v), in data set [2] (0.1% w/v) and in data set [2] (0.5% w/v) were “+8.0%”, “+23.4%” and “+31.4%”, respectively. Further, the “ΔP [2 h], variation” value is reported as -8.8% in data set [2] (0.01% w/v), “+36.2%” in data set [2] (0.1% w/v) and “+39.4%” in data set [2] (0.5% w/v). In addition, the “ΔP [6 h], variation” value in data set [2] (0.01% w/v) is on record as -9.2%. In addition, the “ΔP [3 h], variation in intraocular pressure” value in data set [2] (0.1% w/v) is listed as “+11.4%”; in data set [2] (0.5% w/v), “+8.6%”. Also, the “ΔP in the contralateral eye” value in data set [5] (0.01%, after 2 hours) was -9.5%; in data set [5] (0.01%, after 6 hours), -9.2%; in data set [5] (0.1%, after 2 hours) it was -10.2%; in data set [5] (0.1%, after 6 hours), “+2.6%”; in data set [5] (0.5%, after 2 hours), -26.3%; in data set [5] (0.5%, after 6 hours), “+15%”. In addition, the “Whitening of the conjunctivae” value in data set [3] (0.01%, after 30 minutes) is reported as “whitening of the conjunctivae is observed after 30 minutes”; in data set [3] (0.1%, after 1 hour), “this effect is still present after 1 hour”. Further, the “Slowing of the heart rate” value amounted to 10.7% in the data set on heart rate (0.01%, after 3 hours) and 17.9% in the data set on heart rate (0.1%, after only 1 hour). The “Side-effects (in words)” value in data set [4] (setting [6]) is given as “mydriasis, as well as an initial phase of ocular hypertension (biphasic effect)”. Besides, the “Change in the pupil diameter / mydriasis (in words)” value with pupil diameter was “causes an important mydriasis of the ipsilateral eye”.

In the case of `CNCC(O)c1ccc(OC(=O)C(C)(C)C)c(OC(=O)C(C)(C)C)c1` (stereo not shown) [dipivalylepinephrine], the “Side-effects (in words)” value in data set [4] (setting [6]) is reported as “sensations of burning or irritation”.
